Measurements from patent US20220287970A1, “COMPOSITION FOR INHIBITING SAPONIN-INDUCED HEMOLYSIS, CONTAINING CATIONIC LIPOSOME” (priority 2020, published 2022).

How the values were obtained:
red blood cells (RBCs) [1] = assay: Hemolysis analysis: steroidal and triterpenoid saponins (Example 5); assay type: cell-based; conditions: saponin alone
Procedure: 1) The liposome, saponin, sucrose in a HEPES buffer (pH 7.4), and distilled water were placed in a 96-well plate, as shown in Tables 14 and 15 below.
2) The reaction was carried out at room temperature and 300 rpm for 30 minutes using an orbital shaker.
3) 3 mL of RBCs were suspended in 10 mL of PBS and centrifuged at room temperature and 1500 rpm for 5 minutes, after which the supernatant was removed.
4) Steps 2) and 3) were repeated three times, and thus the RBCs were washed.
5) The RBC pellet was suspended in 1 mL of PBS and diluted to 1/100, followed by cell counting.
6) The RBCs were diluted to 1.5×10^9 cells/mL using PBS and dispensed at 3×10^7 cells/20 μL/well in a 96-well plate treated with the test material of 2) above.
7) The reaction was carried out at room temperature and 300 rpm for 1 hour using an orbital shaker.
8) The 96-well plate was centrifuged at room temperature and 1500 rpm for 5 minutes.
9) 50 μL of the supernatant was transferred to a new 96-well plate, and the absorbance was then measured at 415 nm.
10) Hemolysis (%) was calculated using the following equation.
(§1) Hemolysis (%)=(OD of sample OD of 0% hemolysis)/(0D of 100% hemolysis−OD of 0% hemolysis)×100

red blood cells (RBCs) [2] = assay: Hemolysis analysis: cationic liposome screening vs crude saponin and QS21 (Example 3); assay type: cell-based; conditions: saponin alone
Procedure: 1) After freeze-drying, the liposome stored in the glass vial was hydrated with 225 μL of distilled water and then allowed to react at 60° C. for 10 minutes to thus completely dissolve the liposome.
2) The liposome, saponin, sucrose in a HEPES buffer (pH 7.4), and distilled water were placed in a 96-well plate, as shown in Tables 8 and 9 below.
3) The reaction was carried out at room temperature and 300 rpm for 30 minutes using an orbital shaker.
4) 3 mL of RBCs were suspended in 10 mL of PBS and centrifuged at room temperature and 1500 rpm for 5 minutes, after which the supernatant was removed.
5) Steps 3) and 4) were repeated three times, and thus the RBCs were washed.
6) The RBC pellet was suspended in 1 mL of PBS and diluted to 1/100, followed by cell counting.
7) The RBCs were diluted to 1.5×10^9 cells/mL using PBS and dispensed at 3×10^7 cells/20 μL/well in a 96-well plate treated with the test material of 2) above.
8) The reaction was carried out at room temperature and 300 rpm for 1 hour using an orbital shaker.
9) The 96-well plate was centrifuged at room temperature and 1500 rpm for 5 minutes.
10) 50 μL of the supernatant was transferred to a new 96-well plate, and the absorbance was then measured at 415 nm.
11) Hemolysis (%) was calculated using the following equation.
as §1

Row | Compound | amount of saponin at which 60% hemolysis was observed (red blood cells (RBCs) [1]) [µg] | amount of saponin at which 100% hemolysis was observed (red blood cells (RBCs) [1]) [µg] | amount of saponin at which 100% hemolysis was observed (red blood cells (RBCs) [2]) [µg]
1 | C[C@@H]1O[C@@H](O[C@H]2[C@H](O[C@H]3CC[C@@]4(C)[C@@H](CC[C@]5(C)[C@@H]4CC=C4[C@@H]6CC(C)(C)CC[C@]6(C(=O)O)CC[C@]45C)[C@]3(C)CO)OC[C@H](O)[C@@H]2O)[C@H](O)[C@H](O)[C@H]1O [α-hederin] | 1.25 | 10 | 
2 | C[C@@H]1CC[C@@]2(OC1)O[C@H]1C[C@H]3[C@@H]4CC=C5C[C@@H](O[C@@H]6O[C@H](CO)[C@@H](O[C@@H]7O[C@@H](C)[C@H](O[C@@H]8O[C@@H](C)[C@H](O)[C@@H](O)[C@H]8O)[C@@H](O)[C@H]7O)[C@H](O)[C@H]6O[C@@H]6O[C@@H](C)[C@H](O)[C@@H](O)[C@H]6O)CC[C@]5(C)[C@H]4CC[C@]3(C)[C@@]1(O)[C@@H]2C [Paris VII] | 1.25 | 5 | 
3 | C[C@@H]1CC[C@@]2(OC1)O[C@H]1[C@@H](O)[C@H]3[C@@H]4CC[C@H]5C[C@@H](O[C@@H]6O[C@H](CO)[C@H](O[C@@H]7O[C@H](CO)[C@@H](O)[C@H](O[C@@H]8OC[C@@H](O)[C@H](O)[C@H]8O)[C@H]7O[C@@H]7O[C@H](CO)[C@H](O)[C@H](O[C@@H]8O[C@H](CO)[C@@H](O)[C@H](O)[C@H]8O)[C@H]7O)[C@H](O)[C@H]6O)[C@H](O)C[C@]5(C)[C@H]4CC[C@]3(C)[C@H]1[C@@H]2C [digitonin] | 2.5 | 10 | 
4 | QS21 |  |  | 2.5
